Results as given in ChEMBL document CHEMBL4376868, “Structure-Activity Relationship Study of Novel 6-Aryl-2-benzoyl-pyridines as Tubulin Polymerization Inhibitors with Potent Antiproliferative Properties” (J Med Chem, 2020).
The source made the active and inactive calls. The calls are words filed in the database; no cut-off is given here.

What follows are molecules tested on RPMI-7951 (assay: Antiproliferative activity against human RPMI7951 cells measured after 72 hrs by MTS assay). Settings: RPMI-7951, 72 h.
Format: functional, cell-based

Structure (SMILES)	IC50 [µM]
COc1cc(C(=O)c2cccc(-c3ccc(C#N)cc3)n2)cc(OC)c1OC	0.0119
COc1cc(C(=O)c2cccc(-c3ccc(C)c(C)c3)n2)cc(OC)c1OC	0.0084
COc1cc(C(=O)c2cnc(-c3c[nH]c4ccccc34)[nH]2)cc(OC)c1OC [SABIZABULIN]	0.0088
COc1cc(C(=O)c2cccc(-c3ccsc3)n2)cc(OC)c1OC	0.0279
COc1cc(C(=O)c2cccc(-c3ccc(C)c(F)c3)n2)cc(OC)c1OC	0.0056
COc1cc(C(=O)c2c[nH]c(-c3ccc(C)cc3)n2)cc(OC)c1OC	0.0064
COc1cccc(-c2cccc(C(=O)c3cc(OC)c(OC)c(OC)c3)n2)c1	0.0423
COc1cc(C(=O)c2cc(F)cc(-c3ccc(C)c(O)c3)c2)cc(OC)c1OC	0.0252
COc1cc(C(=O)c2cccc(-c3ccc(C)c(N)c3)n2)cc(OC)c1OC	0.002
COc1cc(C(=O)c2cccc(-c3c(C)cc(C)cc3C)n2)cc(OC)c1OC	> 1
COc1ccc(-c2cccc(C(=O)c3cc(OC)c(OC)c(OC)c3)n2)cc1	0.0321

The molecules below were run on MDA-MB-453 (assay: Antiproliferative activity against human MDA-MB-453 cells measured after 72 hrs by MTS assay). Settings: MDA-MB-453, 72 h.
Format: functional, cell-based

IC50 [µM]	Structure (SMILES)
0.0106	COc1cc(C(=O)c2cccc(-c3ccc(C#N)cc3)n2)cc(OC)c1OC
0.0158	COc1cc(C(=O)c2cccc(-c3ccc(C)c(C)c3)n2)cc(OC)c1OC
0.0385	COc1cc(C(=O)c2cccc(-c3ccsc3)n2)cc(OC)c1OC
0.0065	COc1cc(C(=O)c2cccc(-c3ccc(C)c(F)c3)n2)cc(OC)c1OC
0.0114	COc1cc(C(=O)c2c[nH]c(-c3ccc(C)cc3)n2)cc(OC)c1OC
0.0245	COc1cccc(-c2cccc(C(=O)c3cc(OC)c(OC)c(OC)c3)n2)c1
0.0472	COc1cc(C(=O)c2cc(F)cc(-c3ccc(C)c(O)c3)c2)cc(OC)c1OC
0.0029	COc1cc(C(=O)c2cccc(-c3ccc(C)c(N)c3)n2)cc(OC)c1OC
> 1	COc1cc(C(=O)c2cccc(-c3c(C)cc(C)cc3C)n2)cc(OC)c1OC
0.0181	COc1ccc(-c2cccc(C(=O)c3cc(OC)c(OC)c(OC)c3)n2)cc1

Structure (SMILES)	IC50 [µM]
COc1cc(C(=O)c2cnc(-c3c[nH]c4ccccc34)[nH]2)cc(OC)c1OC [SABIZABULIN]	0.0136

The molecules below were run on A-375 (assay: Antiproliferative activity against human A375 cells measured after 72 hrs by MTS assay). Settings: A-375, 72 h.
Format: functional, cell-based

IC50 [µM]	Structure (SMILES)
0.0123	COc1cc(C(=O)c2cccc(-c3ccc(C#N)cc3)n2)cc(OC)c1OC
0.009	COc1cc(C(=O)c2cccc(-c3ccc(C)c(C)c3)n2)cc(OC)c1OC
0.0341	COc1cc(C(=O)c2cccc(-c3ccsc3)n2)cc(OC)c1OC
0.0059	COc1cc(C(=O)c2cccc(-c3ccc(C)c(F)c3)n2)cc(OC)c1OC
0.0187	COc1cc(C(=O)c2c[nH]c(-c3ccc(C)cc3)n2)cc(OC)c1OC
0.0413	COc1cccc(-c2cccc(C(=O)c3cc(OC)c(OC)c(OC)c3)n2)c1
0.067	COc1cc(C(=O)c2cc(F)cc(-c3ccc(C)c(O)c3)c2)cc(OC)c1OC
0.003	COc1cc(C(=O)c2cccc(-c3ccc(C)c(N)c3)n2)cc(OC)c1OC
> 1	COc1cc(C(=O)c2cccc(-c3c(C)cc(C)cc3C)n2)cc(OC)c1OC
0.0278	COc1ccc(-c2cccc(C(=O)c3cc(OC)c(OC)c(OC)c3)n2)cc1

Structure (SMILES)	IC50 [µM]
COc1cc(C(=O)c2cnc(-c3c[nH]c4ccccc34)[nH]2)cc(OC)c1OC [SABIZABULIN]	0.0104

What follows are molecules tested against Tubulin (Sus scrofa) (UniProt P02554+P02550) (assay: Inhibition of porcine brain tubulin polymerization at 10 uM measured at 30 secs interval for 65 mins by spectrophotometric method). Settings: not given.
Chain of Tubulin (Sus scrofa) (P02550 whole entry, looked up): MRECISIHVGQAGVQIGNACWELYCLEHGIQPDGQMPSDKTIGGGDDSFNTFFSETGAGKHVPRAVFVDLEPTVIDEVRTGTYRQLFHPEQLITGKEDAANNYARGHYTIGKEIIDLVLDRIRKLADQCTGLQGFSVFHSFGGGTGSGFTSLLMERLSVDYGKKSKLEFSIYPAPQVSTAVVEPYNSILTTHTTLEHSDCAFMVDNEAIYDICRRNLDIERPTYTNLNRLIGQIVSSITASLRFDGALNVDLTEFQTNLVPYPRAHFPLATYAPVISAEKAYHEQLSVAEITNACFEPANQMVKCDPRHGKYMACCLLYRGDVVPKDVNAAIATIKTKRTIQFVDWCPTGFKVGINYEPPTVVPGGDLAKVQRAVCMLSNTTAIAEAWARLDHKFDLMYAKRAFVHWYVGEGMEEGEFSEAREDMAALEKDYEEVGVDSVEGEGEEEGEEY
Chain of Tubulin (Sus scrofa) (P02554 whole entry, looked up): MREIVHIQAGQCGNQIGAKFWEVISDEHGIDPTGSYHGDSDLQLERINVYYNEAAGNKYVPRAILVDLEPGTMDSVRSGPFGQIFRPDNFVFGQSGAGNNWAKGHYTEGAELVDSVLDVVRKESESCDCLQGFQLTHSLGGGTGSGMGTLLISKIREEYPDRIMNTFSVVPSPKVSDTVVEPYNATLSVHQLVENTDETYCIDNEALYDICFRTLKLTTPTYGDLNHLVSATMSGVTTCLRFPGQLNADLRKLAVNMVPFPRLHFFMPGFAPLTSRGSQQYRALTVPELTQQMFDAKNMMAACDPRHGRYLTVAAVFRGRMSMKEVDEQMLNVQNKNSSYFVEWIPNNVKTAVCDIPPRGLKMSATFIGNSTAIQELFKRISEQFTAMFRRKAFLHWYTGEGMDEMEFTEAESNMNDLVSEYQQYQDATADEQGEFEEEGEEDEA

inhibition	Structure (SMILES)
Active	COc1cc(C(=O)c2c[nH]c(-c3ccc(C)cc3)n2)cc(OC)c1OC

The molecules below were run on MDA-MB-231 (assay: Antiproliferative activity against human MDA-MB-231 cells measured after 72 hrs by MTS assay). Settings: MDA-MB-231, 72 h.
Format: functional, cell-based

IC50 [µM]	Structure (SMILES)
0.0281	COc1cc(C(=O)c2cccc(-c3ccc(C#N)cc3)n2)cc(OC)c1OC
0.02	COc1cc(C(=O)c2cccc(-c3ccc(C)c(C)c3)n2)cc(OC)c1OC
0.0355	COc1cc(C(=O)c2cccc(-c3ccsc3)n2)cc(OC)c1OC
0.0065	COc1cc(C(=O)c2cccc(-c3ccc(C)c(F)c3)n2)cc(OC)c1OC
0.0253	COc1cc(C(=O)c2c[nH]c(-c3ccc(C)cc3)n2)cc(OC)c1OC
0.0414	COc1cccc(-c2cccc(C(=O)c3cc(OC)c(OC)c(OC)c3)n2)c1
0.22	COc1cc(C(=O)c2cc(F)cc(-c3ccc(C)c(O)c3)c2)cc(OC)c1OC
0.0028	COc1cc(C(=O)c2cccc(-c3ccc(C)c(N)c3)n2)cc(OC)c1OC
> 1	COc1cc(C(=O)c2cccc(-c3c(C)cc(C)cc3C)n2)cc(OC)c1OC
0.0507	COc1ccc(-c2cccc(C(=O)c3cc(OC)c(OC)c(OC)c3)n2)cc1

Structure (SMILES)	IC50 [µM]
COc1cc(C(=O)c2cnc(-c3c[nH]c4ccccc34)[nH]2)cc(OC)c1OC [SABIZABULIN]	0.0082

What follows are molecules tested on SK-BR-3 (assay: Antiproliferative activity against human SK-BR-3 cells measured after 72 hrs by MTS assay). Settings: SK-BR-3, 72 h.
Format: functional, cell-based

IC50 [µM]	Structure (SMILES)
0.0123	COc1cc(C(=O)c2cccc(-c3ccc(C#N)cc3)n2)cc(OC)c1OC
0.0088	COc1cc(C(=O)c2cccc(-c3ccc(C)c(C)c3)n2)cc(OC)c1OC
0.0673	COc1cc(C(=O)c2cccc(-c3ccsc3)n2)cc(OC)c1OC
0.0044	COc1cc(C(=O)c2cccc(-c3ccc(C)c(F)c3)n2)cc(OC)c1OC
0.0125	COc1cc(C(=O)c2c[nH]c(-c3ccc(C)cc3)n2)cc(OC)c1OC
0.0424	COc1cccc(-c2cccc(C(=O)c3cc(OC)c(OC)c(OC)c3)n2)c1
0.0864	COc1cc(C(=O)c2cc(F)cc(-c3ccc(C)c(O)c3)c2)cc(OC)c1OC
0.0016	COc1cc(C(=O)c2cccc(-c3ccc(C)c(N)c3)n2)cc(OC)c1OC
> 1	COc1cc(C(=O)c2cccc(-c3c(C)cc(C)cc3C)n2)cc(OC)c1OC
0.0199	COc1ccc(-c2cccc(C(=O)c3cc(OC)c(OC)c(OC)c3)n2)cc1

Structure (SMILES)	IC50 [µM]
COc1cc(C(=O)c2cnc(-c3c[nH]c4ccccc34)[nH]2)cc(OC)c1OC [SABIZABULIN]	0.0133

These molecules were tested on M14 (assay: Antiproliferative activity against human M14 cells measured after 72 hrs by MTS assay). Settings: M14, 72 h.
Format: functional, cell-based

Structure (SMILES)	IC50 [µM]
COc1cc(C(=O)c2cccc(-c3ccc(C#N)cc3)n2)cc(OC)c1OC	0.0128
COc1cc(C(=O)c2cccc(-c3ccc(C)c(C)c3)n2)cc(OC)c1OC	0.0081
COc1cc(C(=O)c2cnc(-c3c[nH]c4ccccc34)[nH]2)cc(OC)c1OC [SABIZABULIN]	0.0089
COc1cc(C(=O)c2cccc(-c3ccsc3)n2)cc(OC)c1OC	0.0283
COc1cc(C(=O)c2cccc(-c3ccc(C)c(F)c3)n2)cc(OC)c1OC	0.0067
COc1cc(C(=O)c2c[nH]c(-c3ccc(C)cc3)n2)cc(OC)c1OC	0.0069
COc1cccc(-c2cccc(C(=O)c3cc(OC)c(OC)c(OC)c3)n2)c1	0.0347
COc1cc(C(=O)c2cc(F)cc(-c3ccc(C)c(O)c3)c2)cc(OC)c1OC	0.03
COc1cc(C(=O)c2cccc(-c3ccc(C)c(N)c3)n2)cc(OC)c1OC	0.003
COc1cc(C(=O)c2cccc(-c3c(C)cc(C)cc3C)n2)cc(OC)c1OC	> 1
COc1ccc(-c2cccc(C(=O)c3cc(OC)c(OC)c(OC)c3)n2)cc1	0.0274
